Laboratory results reported in US8324264B1, “Inhibitors of bacterial biofilms and related methods” (Sequoia Sciences, Inc., priority 2011, dated 2012).
Converted amounts (≈) assume the structure as drawn. Where two headings read alike, the source gives them in different places.

Experiments:
[1] = system: P. aeruginosa biofilms; experiment: Biofilm growth assay (spreading biofilm on semi-solid agar), P. aeruginosa; type: cell-based; details: Pseudomonas aeruginosa, read-out: P. aeruginosa: concentration that reduces the area of the spreading biofilm by greater than or equal to 85%
Summary of the method: (§1)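 Values are compound concentrations (μg/ml) that cut the spreading-biofilm zone area by ≥85% relative to negative controls after overnight 37 °C growth from 5 μL central inoculum. E. coli plates: LB, 0.6% agar, 0.5% glucose; P. aeruginosa plates: M8 agar plus 0.2% glucose, 100 μM CaCl2, 1 mM MgSO4, 0.5% Casamino acids.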

[2] = system: E. coli biofilms; experiment: Biofilm growth assay (spreading biofilm on semi-solid agar), E. coli; type: cell-based; details: Escherichia coli, read-out: E. coli: concentration that reduces the area of the spreading biofilm by greater than or equal to 85%
Summary of the method: as §1

[3] = biofilm growth assay, overnight 37° C., vs negative controls, Tables 1-5

SMILES | melting point | IC85 [1] [µg/mL] | IC85 [2] [µg/mL] | IC85 [1, 3] [µg/mL] | IC85 [2, 3] [µg/mL]
CC1(C)CC[C@]2(C(=O)Nc3nnn[nH]3)CC[C@]3(C)C(=CCC4[C@@]5(C)Cc6c(n[nH]c6N)C(C)(C)C5CC[C@]43C)C2C1 (stereo partly drawn) [Compound 61, (4aS,6aS,6bR,13aR)-12-Amino-2,2,6a,6b,9,9,13a-heptamethyl-N-(1H-tetrazol-5-yl)-2,3,4,4a,5,6,6a,6b,7,8,8a,9,11,13,13a,13b,14,15b-octadecahydro-1H-chryseno[1,2-f]indazole-4-a-carboxamide] | > 300 °C | 0.5 (≈ 0.892 µM) | 0.5 (≈ 0.892 µM) |  | 
CC1(C)CC[C@]2(c3n[nH]c(O)c3CCNC(N)=O)CC[C@]3(C)C(=CCC4[C@@]5(C)Cc6c(n[nH]c6N)C(C)(C)C5CC[C@]43C)C2C1 (stereo partly drawn) [Compound 87, 1-(2-(3-((4aS,6aS,6bR,13aR)-12-Amino-2,2,6a,6b,9,9,13a-heptamethyl-2,3,4,4a,5,6,6a,6b,7,8,8a,9,11,13,13a,13b,14,15b-octadecahydro-1H-chryseno[1,2-f]indazol-4-a-yl)-5-hydroxy-1H-pyrazol-4-yl)ethyl)urea] | > 300 °C |  |  | 0.5 (≈ 0.809 µM) | 1 (≈ 1.62 µM)
CC1(C)CC[C@]2(c3n[nH]c(O)c3N3CCNCC3)CC[C@]3(C)C(=CCC4[C@@]5(C)Cc6c(n[nH]c6N)C(C)(C)C5CC[C@]43C)C2C1 (stereo partly drawn) [Compound 90, 3-((4aS,6aS,6bR,13aR)-12-Amino-2,2,6a,6b,9,9,13a-heptamethyl-2,3,4,4a,5,6,6a,6b,7,8,8a,9,11,13,13a,13b,14,15b-octadecahydro-1H-chryseno[1,2-f]indazol-4-a-yl)-4-(piperazin-1-yl)-1H-pyrazol-5-ol] | > 300 °C |  |  | 0.5 (≈ 0.812 µM) | 1 (≈ 1.62 µM)
CC1(C)CC[C@]2(c3n[nH]c(O)c3CCN)CC[C@]3(C)C(=C(c4ccoc4CN4CCOCC4)CC4[C@@]5(C)Cc6c(n[nH]c6N)C(C)(C)[C@@H]5CC[C@]43C)[C@@H]2C1 (stereo partly drawn) [Compound 92, 3-((4aS,6aS,6bR,8aR,13aR,15bS)-12-Amino-2,2,6a,6b,9,9,13a-heptamethyl-15-(2-(morpholinomethyl)furan-3-yl)-2,3,4,4a,5,6,6a,6b,7,8,8a,9,11,13,13a,13b,14,15b-octadecahydro-1H-chryseno[1,2-f]indazol-4-a-yl)-4-(2-aminoethyl)-1H-pyrazol-5-ol] | 238 to 240 °C |  |  | 0.5 (≈ 0.676 µM) | 2 (≈ 2.7 µM)
CC1(C)CC[C@]2(C(=O)O)CC[C@]3(C)C(=C(c4c[nH]c5ccccc45)CC4[C@@]5(C)Cc6c(n[nH]c6N)C(C)(C)[C@@H]5CC[C@]43C)[C@@H]2C1 (stereo partly drawn) [Example 8, (4aS,6aS,6bR,8aR,13aR,15bS)-12-Amino-15-(1H-indol-3-yl)-2,2,6a,6b,9,9,13a-heptamethyl-2,3,4,4a,5,6,6a,6b,7,8,8a,9,11,13,13a,13b,14,15b-octadecahydro-1H-chryseno[1,2-f]indazole-4-a-carboxylic acid] | > 300 °C (dec.) |  |  | 0.25 (≈ 0.411 µM) | 1 (≈ 1.64 µM)
CC1(C)CC[C@]2(C(=O)O)CC[C@]3(C)C(=C(c4c[nH]c(CN5CCOCC5)c4)CC4[C@@]5(C)Cc6c(n[nH]c6N)C(C)(C)[C@@H]5CC[C@]43C)[C@@H]2C1 (stereo partly drawn) [Example 9, (4aS,6aS,6bR,8aR,13aR,15bS)-12-Amino-2,2,6a,6b,9,9,13a-heptamethyl-15-(5-(morpholinomethyl)-1H-pyrrol-3-yl)-2,3,4,4a,5,6,6a,6b,7,8,8a,9,11,13,13a,13b,14,15b-octadecahydro-1H-chryseno[1,2-f]indazole-4-a-carboxylic acid] | 270 to 280 °C (dec.) |  |  | 0.5 (≈ 0.76 µM) | 1 (≈ 1.52 µM)
CC1(C)CC[C@]2(C(=O)O)CC[C@]3(C)C(=C(c4cccnc4)CC4[C@@]5(C)Cc6c(n[nH]c6N)C(C)(C)[C@@H]5CC[C@]43C)[C@@H]2C1 (stereo partly drawn) [Example 12, (4aS,6aS,6bR,8aR,13aR,15bS)-12-Amino-2,2,6a,6b,9,9,13a-heptamethyl-15-(pyridin-3-yl)-2,3,4,4a,5,6,6a,6b,7,8,8a,9,11,13,13a,13b,14,15b-octadecahydro-1H-chryseno[1,2-f]indazole-4-a-carboxylic acid] | > 300 °C |  |  | 0.5 (≈ 0.876 µM) | 1 (≈ 1.75 µM)
C=CC1=C2[C@@H]3CC(C)(C)CC[C@]3(C(=O)O)CC[C@@]2(C)[C@]2(C)CC[C@H]3C(C)(C)c4n[nH]c(N)c4C[C@]3(C)C2C1 (stereo partly drawn) [Example 13, (4aS,6aS,6bR,8aR,13aR,15bS)-12-Amino-2,2,6a,6b,9,9,13a-heptamethyl-15-vinyl-2,3,4,4a,5,6,6a,6b,7,8,8a,9,11,13,13a,13b,14,15b-octadecahydro-1H-chryseno[1,2-f]indazole-4-a-carboxylic acid] | > 300 °C |  |  | 0.5 (≈ 0.962 µM) | 1 (≈ 1.92 µM)
CN(C)c1cc(C2=C3[C@@H]4CC(C)(C)CC[C@]4(C(=O)O)CC[C@@]3(C)[C@]3(C)CC[C@H]4C(C)(C)c5n[nH]c(N)c5C[C@]4(C)C3C2)ccn1 (stereo partly drawn) [Example 22, (4aS,6aS,6bR,8aR,13aR,15bS)-12-Amino-15-(2-(dimethylamino)pyridin-4-yl)-2,2,6a,6b,9,9,13a-heptamethyl-2,3,4,4a,5,6,6a,6b,7,8,8a,9,11,13,13a,13b,14,15b-octadecahydro-1H-chryseno[1,2-f]indazole-4-a-carboxylic acid] | > 300 °C |  |  | 1 (≈ 1.63 µM) | > 2

More lines, main results first:

melting point | SMILES | IC85 [1] [µg/mL] | IC85 [2] [µg/mL] | IC85 [1, 3] [µg/mL] | IC85 [2, 3] [µg/mL]
> 300 °C | CC1(C)CC[C@]2(C(=O)Nc3cc(N)n[nH]3)CC[C@]3(C)C(=CCC4[C@@]5(C)Cc6c(n[nH]c6N)C(C)(C)C5CC[C@]43C)C2C1 (stereo partly drawn) [Compound 69, (4aS,6aS,6bR,13aR)-12-amino-N-(3-amino-1H-pyrazol-5-yl)-2,2,6a,6b,9,9,13a-heptamethyl-2,3,4,4a,5,6,6a,6b,7,8,8a,9,11,13,13a,13b,14,15b-octadecahydro-1H-chryseno[1,2-f]indazole-4-a-carboxamide] |  |  | 1 (≈ 1.74 µM) | 1 (≈ 1.74 µM)
195 to 210 °C (dec.) | Cn1nc([C@]23CCC(C)(C)CC2C2=CCC4[C@@]5(C)Cc6c(n[nH]c6N)C(C)(C)C5CC[C@@]4(C)[C@]2(C)CC3)cc1N (stereo partly drawn) [Compound 72, (4aS,6aS,6bR,8aR,13aR,15bS)-4-a-(5-Amino-1-methyl-1H-pyrazol-3-yl)-2,2,6a,6b,9,9,13a-heptamethyl-2,3,4,4a,5,6,6a,6b,7,8,8a,9,11,13,13a,13b,14,15b-octadecahydro-1H-chryseno[1,2-f]indazol-12-amine] |  |  | 1 (≈ 1.84 µM) | > 2
> 300 °C | CC1(C)CC[C@]2(C(=O)Nc3cc(S)n[nH]3)CC[C@]3(C)C(=CCC4[C@@]5(C)Cc6c(n[nH]c6N)C(C)(C)C5CC[C@]43C)C2C1 (stereo partly drawn) [Compound 79, (4aS,6aS,6bR,13aR)-12-Amino-N-(3-mercapto-1H-pyrazol-5-yl)-2,2,6a,6b,9,9,13a-heptamethyl-2,3,4,4a,5,6,6a,6b,7,8,8a,9,11,13,13a,13b,14,15b-octadecahydro-1H-chryseno[1,2-f]indazole-4-a-carboxamide] |  |  | 0.25 (≈ 0.423 µM) | 0.5 (≈ 0.846 µM)
> 300 °C | CC1(C)CC[C@]2(C(=O)Sc3nnc(N)[nH]3)CC[C@]3(C)C(=C(c4cccnc4)CC4[C@@]5(C)Cc6c(n[nH]c6N)C(C)(C)[C@@H]5CC[C@]43C)[C@@H]2C1 (stereo partly drawn) [Compound 91, (4aS,6aS,6bR,8aR,13aR,15bS)—S-5-Amino-4H-1,2,4-triazol-3-yl 12-amino-2,2,6a,6b,9,9,13a-heptamethyl-15-(pyridin-3-yl)-2,3,4,4a,5,6,6a,6b,7,8,8a,9,11,13,13a,13b,14,15b-octadecahydro-1H-chryseno[1,2-f]indazole-4-a-carbothioate] |  |  | 1 (≈ 1.49 µM) | 1 (≈ 1.49 µM)
> 300 °C | C/C=C/C1=C2[C@@H]3CC(C)(C)CC[C@]3(C(=O)O)CC[C@@]2(C)[C@]2(C)CC[C@H]3C(C)(C)c4n[nH]c(N)c4C[C@]3(C)C2C1 (stereo partly drawn) [Example 5, (4aS,6aS,6bR,8aR,13aR,15bS)-12-Amino-2,2,6a,6b,9,9,13a-heptamethyl-15-((E)-prop-1-enyl)-2,3,4,4a,5,6,6a,6b,7,8,8a,9,11,13,13a,13b,14,15b-octadecahydro-1H-chryseno[1,2-f]indazole-4-a-carboxylic acid] |  |  | 0.5 (≈ 0.937 µM) | 1 (≈ 1.87 µM)
> 300 °C | CC1(C)CC[C@]2(C(=O)O)CC[C@]3(C)C(=C(c4cc[nH]c4)CC4[C@@]5(C)Cc6c(n[nH]c6N)C(C)(C)[C@@H]5CC[C@]43C)[C@@H]2C1 (stereo partly drawn) [Example 6, (4aS,6aS,6bR,8aR,13aR,15bS)-12-Amino-2,2,6a,6b,9,9,13a-heptamethyl-15-(1H-pyrrol-3-yl)-2,3,4,4a,5,6,6a,6b,7,8,8a,9,11,13,13a,13b,14,15b-octadecahydro-1H-chryseno[1,2-f]indazole-4-a-carboxylic acid] |  |  | 0.125 (≈ 0.224 µM) | 0.25 (≈ 0.447 µM)
